Data as given in paper PMC5218480 (PLoS ONE, 2017).

Test system: MV-4-11 cells
Experiment: Gene expression microarray analysis (Affymetrix PrimeView) and GSEA
Type: cell-based, human
Parameters: RFU PODN (11730768_x_at) / Fold change /veh PODN (11730768_x_at) / RFU LINC00158 (11744669_a_at) / Fold change /veh LINC00158 (11744669_a_at) / RFU DUSP10 (11751237_a_at) / Fold change /veh DUSP10 (11751237_a_at) / RFU ID3 (11757404_x_at) / Fold change /veh ID3 (11757404_x_at) / RFU PLEKHG5 (11737974_s_at) / Fold change /veh PLEKHG5 (11737974_s_at) / RFU LRRC4B (11730491_at) / Fold change /veh LRRC4B (11730491_at) / RFU GIMAP4 (11747438_a_at) / Fold change /veh GIMAP4 (11747438_a_at) / RFU KRT8 (11758183_x_at) / Fold change /veh KRT8 (11758183_x_at) / RFU CNN1 (11734310_a_at) / Fold change /veh CNN1 (11734310_a_at) / RFU VPS37D (11726825_at) / Fold change /veh VPS37D (11726825_at) / RFU C10orf10 (11716522_x_at) / Fold change /veh C10orf10 (11716522_x_at) / RFU KIR2DL2 /// KIR2DL4 /// KIR2DL5A /// KIR2DL5B /// KIR2DS1 /// KIR2DS2 /// KIR2DS3 /// KIR2DS4 /// KIR3DL3 /// KIR3DL3 /// KIR3DS1 (11738374_at) / Fold change /veh KIR2DL2 /// KIR2DL4 /// KIR2DL5A /// KIR2DL5B /// KIR2DS1 /// KIR2DS2 /// KIR2DS3 /// KIR2DS4 /// KIR3DL3 /// KIR3DL3 /// KIR3DS1 (11738374_at) / RFU C1QL1 (11718748_at) / Fold change /veh C1QL1 (11718748_at) / RFU TMPRSS4 (11747572_a_at) / Fold change /veh TMPRSS4 (11747572_a_at) / RFU HAMP (11756126_x_at) / Fold change /veh HAMP (11756126_x_at) / RFU RNFT2 (11725882_a_at) / Fold change /veh RNFT2 (11725882_a_at) / RFU NR4A2 (11747474_a_at) / Fold change /veh NR4A2 (11747474_a_at) / RFU ABCC12 (11746883_a_at) / Fold change /veh ABCC12 (11746883_a_at) / RFU TMEM136 (11760407_x_at) / Fold change /veh TMEM136 (11760407_x_at) / RFU CLDN22 /// WWC2 (11732394_at) / Fold change /veh CLDN22 /// WWC2 (11732394_at) / RFU HLA-DPB1 (11760878_x_at) / Fold change /veh HLA-DPB1 (11760878_x_at) / RFU SPINT1 (11716480_a_at) / Fold change /veh SPINT1 (11716480_a_at) / RFU GAP43 (11754022_s_at) / Fold change /veh GAP43 (11754022_s_at) / RFU A4GNT (11735810_at) / Fold change /veh A4GNT (11735810_at) / RFU PRB3 (11715151_x_at) / Fold change /veh PRB3 (11715151_x_at) / RFU TUBB4B (11761932_at) / Fold change /veh TUBB4B (11761932_at) / RFU CAPN14 (11732068_a_at) / Fold change /veh CAPN14 (11732068_a_at) / RFU TMCC2 (11721928_a_at) / Fold change /veh TMCC2 (11721928_a_at) / RFU IRGQ (11745062_a_at) / Fold change /veh IRGQ (11745062_a_at) / RFU FAM174B (11720279_a_at) / Fold change /veh FAM174B (11720279_a_at) / RFU TMPRSS4 (11748680_a_at) / Fold change /veh TMPRSS4 (11748680_a_at) / RFU FAM212B (11763350_a_at) / Fold change /veh FAM212B (11763350_a_at) / RFU PLEKHG5 (11743358_a_at) / Fold change /veh PLEKHG5 (11743358_a_at) / RFU ZSCAN30 (11745921_a_at) / Fold change /veh ZSCAN30 (11745921_a_at) / RFU CMKLR1 (11741424_a_at) / Fold change /veh CMKLR1 (11741424_a_at) / RFU LOC101060620 /// MAPK8IP1 (11723275_at) / Fold change /veh LOC101060620 /// MAPK8IP1 (11723275_at) / RFU SPTSSB (11747773_x_at) / Fold change /veh SPTSSB (11747773_x_at) / RFU PRSS12 (11739890_at) / Fold change /veh PRSS12 (11739890_at) / RFU BIN1 (11741810_x_at) / Fold change /veh BIN1 (11741810_x_at) / RFU WNT11 (11732464_a_at) / Fold change /veh WNT11 (11732464_a_at) / RFU C10orf10 (11716521_a_at) / Fold change /veh C10orf10 (11716521_a_at) / RFU C5orf56 (11738089_at) / Fold change /veh C5orf56 (11738089_at) / RFU CYB561 (11721691_x_at) / Fold change /veh CYB561 (11721691_x_at) / RFU ANKRD19P (11752326_a_at) / Fold change /veh ANKRD19P (11752326_a_at) / RFU OR2T12 /// OR2T33 /// OR2T8 (11738714_s_at) / Fold change /veh OR2T12 /// OR2T33 /// OR2T8 (11738714_s_at) / RFU VCAN (11748164_a_at) / Fold change /veh VCAN (11748164_a_at) / RFU JSRP1 (11732532_at) / Fold change /veh JSRP1 (11732532_at) / RFU KRTAP10-11 (11738290_x_at) / Fold change /veh KRTAP10-11 (11738290_x_at) / RFU MYO3A (11730013_a_at) / Fold change /veh MYO3A (11730013_a_at) / RFU EBF3 (11725865_a_at) / Fold change /veh EBF3 (11725865_a_at) / RFU CAMK2N1 (11719241_x_at) / Fold change /veh CAMK2N1 (11719241_x_at) / RFU C5orf56 (11738088_a_at) / Fold change /veh C5orf56 (11738088_a_at) / RFU OLFML3 (11715873_a_at) / Fold change /veh OLFML3 (11715873_a_at) / RFU LOC100653217 /// NTM (11731650_a_at) / Fold change /veh LOC100653217 /// NTM (11731650_a_at) / RFU MAPK11 (11762145_a_at) / Fold change /veh MAPK11 (11762145_a_at) / RFU FIZ1 (11724087_x_at) / Fold change /veh FIZ1 (11724087_x_at) / RFU OASL (11726364_x_at) / Fold change /veh OASL (11726364_x_at) / RFU SOX15 (11748057_x_at) / Fold change /veh SOX15 (11748057_x_at) / RFU CD79A (11719716_a_at) / Fold change /veh CD79A (11719716_a_at) / RFU HIST1H1D (11736915_at) / Fold change /veh HIST1H1D (11736915_at) / RFU CASKIN2 (11723855_a_at) / Fold change /veh CASKIN2 (11723855_a_at) / RFU LOC730098 (11760151_x_at) / Fold change /veh LOC730098 (11760151_x_at) / RFU OR4N2 (11742367_at) / Fold change /veh OR4N2 (11742367_at) / RFU PRRT2 (11749266_a_at) / Fold change /veh PRRT2 (11749266_a_at) / RFU SNX32 (11753110_a_at) / Fold change /veh SNX32 (11753110_a_at) / RFU CDHR5 (11726645_a_at) / Fold change /veh CDHR5 (11726645_a_at) / RFU RCAN1 (11760418_a_at) / Fold change /veh RCAN1 (11760418_a_at) / RFU FAM167A (11723789_a_at) / Fold change /veh FAM167A (11723789_a_at) / RFU FAM26E (11764081_at) / Fold change /veh FAM26E (11764081_at) / RFU ISYNA1 (11749810_s_at) / Fold change /veh ISYNA1 (11749810_s_at) / RFU ACY1 (11761880_at) / Fold change /veh ACY1 (11761880_at) / RFU 11764098_at / Fold change /veh 11764098_at / RFU SAMD14 (11745864_x_at) / Fold change /veh SAMD14 (11745864_x_at) / RFU NPB (11741838_a_at) / Fold change /veh NPB (11741838_a_at) / RFU TMPRSS6 (11731388_a_at) / Fold change /veh TMPRSS6 (11731388_a_at) / RFU KRTAP10-2 (11738614_at) / Fold change /veh KRTAP10-2 (11738614_at) / RFU ARHGAP8 /// PRR5-ARHGAP8 (11727945_x_at) / Fold change /veh ARHGAP8 /// PRR5-ARHGAP8 (11727945_x_at) / RFU KRTAP5-7 /// NADSYN1 (11734609_at) / Fold change /veh KRTAP5-7 /// NADSYN1 (11734609_at) / RFU RASL12 (11751679_a_at) / Fold change /veh RASL12 (11751679_a_at) / RFU CDKN2B (11736163_a_at) / Fold change /veh CDKN2B (11736163_a_at) / RFU PRF1 (11729649_at) / Fold change /veh PRF1 (11729649_at) / RFU, ZNF638 /// ZNF638-IT1 / Fold change vs veh, ZNF638 /// ZNF638-IT1 / RFU, PANK3 / Fold change vs veh, PANK3 / RFU, SH3YL1 / Fold change vs veh, SH3YL1 / RFU, ZEB2 / Fold change vs veh, ZEB2 / RFU, NRIP1 / Fold change vs veh, NRIP1 / RFU, PTTG1IP / Fold change vs veh, PTTG1IP / RFU, CAPN2 / Fold change vs veh, CAPN2 / RFU, MED14 / Fold change vs veh, MED14 / RFU, SNORA58 / Fold change vs veh, SNORA58 / RFU, C1orf63 / Fold change vs veh, C1orf63 / RFU, LRRFIP1 / Fold change vs veh, LRRFIP1 / RFU, NDUFAF7 / Fold change vs veh, NDUFAF7 / RFU, SLC12A2 / Fold change vs veh, SLC12A2 / RFU, IBTK / Fold change vs veh, IBTK / RFU, ESF1 / Fold change vs veh, ESF1 / Fold change vs veh, TMEM50B / RFU, TAOK1 / Fold change vs veh, TAOK1 / RFU, ACBD3 / Fold change vs veh, ACBD3 / RFU, TMA16 / Fold change vs veh, TMA16 / RFU, RWDD3 / Fold change vs veh, RWDD3 / RFU, BCAT1 / Fold change vs veh, BCAT1 / RFU, EDEM3 / Fold change vs veh, EDEM3 / RFU, TMEM33 / Fold change vs veh, TMEM33 / RFU, WDR75 / Fold change vs veh, WDR75 / RFU, AHCTF1 / Fold change vs veh, AHCTF1 / RFU, TFRC / Fold change vs veh, TFRC / RFU, ZDHHC17 / Fold change vs veh, ZDHHC17 / RFU, NOM1 / Fold change vs veh, NOM1 / RFU, ARL8B / Fold change vs veh, ARL8B / RFU, ZBTB11 / Fold change vs veh, ZBTB11 / RFU, TAMM41 / Fold change vs veh, TAMM41 / RFU, KIAA1704 /// LOC100996395 / Fold change vs veh, KIAA1704 /// LOC100996395 / RFU, ING1 / Fold change vs veh, ING1 / RFU, TRMT61B / Fold change vs veh, TRMT61B / RFU, FUBP3 / Fold change vs veh, FUBP3 / RFU, TP53 / Fold change vs veh, TP53 / RFU, TNKS2 / Fold change vs veh, TNKS2 / RFU, ZFP14 / Fold change vs veh, ZFP14 / RFU, ACTR2 / Fold change vs veh, ACTR2 / RFU, PPP3R1 / Fold change vs veh, PPP3R1 / RFU, PIK3R1 / Fold change vs veh, PIK3R1 / RFU, HNRNPA1 / Fold change vs veh, HNRNPA1 / RFU, RNF170 / Fold change vs veh, RNF170 / RFU, ZNF28 / Fold change vs veh, ZNF28 / RFU, RNGTT / Fold change vs veh, RNGTT / RFU, OGT / Fold change vs veh, OGT / RFU, BRD1 / Fold change vs veh, BRD1 / RFU, MARS / Fold change vs veh, MARS / RFU, ZNF655 / Fold change vs veh, ZNF655 / RFU, FAHD1 / Fold change vs veh, FAHD1 / RFU, BDP1 / Fold change vs veh, BDP1 / RFU, LRRCC1 / Fold change vs veh, LRRCC1 / RFU, ARID1A / Fold change vs veh, ARID1A / RFU, ZNF146 / Fold change vs veh, ZNF146 / RFU, ZNF330 / Fold change vs veh, ZNF330 / RFU, GPN3 / Fold change vs veh, GPN3 / RFU, C9orf123 / Fold change vs veh, C9orf123 / RFU, N4BP2L2 / Fold change vs veh, N4BP2L2 / RFU, ARFIP1 / Fold change vs veh, ARFIP1 / RFU, FAM179B / Fold change vs veh, FAM179B / RFU, BCL10 / Fold change vs veh, BCL10 / RFU, UHRF1BP1L / Fold change vs veh, UHRF1BP1L / RFU, BET1 / Fold change vs veh, BET1 / RFU, CNOT2 / Fold change vs veh, CNOT2 / RFU, ZNF268 / Fold change vs veh, ZNF268 / Fold change vs veh, ZNF507 / RFU, DGCR2 / Fold change vs veh, DGCR2 / RFU, WDSUB1 / Fold change vs veh, WDSUB1 / Fold change vs veh, HSP90B1 /// MIR3652 / RFU, ADSS / Fold change vs veh, ADSS / RFU, GK / Fold change vs veh, GK / RFU, ZNF148 / Fold change vs veh, ZNF148 / RFU, TAF9 / Fold change vs veh, TAF9 / RFU, SLC1A5 / Fold change vs veh, SLC1A5 / RFU, SLMO2 / Fold change vs veh, SLMO2 / RFU, ABCC4 / Fold change vs veh, ABCC4 / RFU, LOC101060439 /// RAP1B / Fold change vs veh, LOC101060439 /// RAP1B / RFU, RFX7 / Fold change vs veh, RFX7 / RFU, GTPBP10 / Fold change vs veh, GTPBP10 / RFU, CNEP1R1 / Fold change vs veh, CNEP1R1 / RFU, BIVM-ERCC5 /// ERCC5 / Fold change vs veh, BIVM-ERCC5 /// ERCC5 / RFU, ILF3 / Fold change vs veh, ILF3 / RFU 11762660_at / Fold change /veh 11762660_at / RFU VCAN (11757783_s_at) / Fold change /veh VCAN (11757783_s_at) / RFU DDX43 (11728927_at) / Fold change /veh DDX43 (11728927_at) / RFU KRT8 (11758188_x_at) / Fold change /veh KRT8 (11758188_x_at) / RFU NKD1 (11759106_at) / Fold change /veh NKD1 (11759106_at) / RFU SRD5A1 (11742802_a_at) / Fold change /veh SRD5A1 (11742802_a_at) / RFU TPSAB1 /// TPSB2 (11721975_s_at) / Fold change /veh TPSAB1 /// TPSB2 (11721975_s_at) / RFU GSTM3 (11746129_a_at) / Fold change /veh GSTM3 (11746129_a_at) / RFU IL23R (11737362_x_at) / Fold change /veh IL23R (11737362_x_at) / RFU TMEM51 (11727254_a_at) / Fold change /veh TMEM51 (11727254_a_at) / RFU PIWIL2 (11732686_x_at) / Fold change /veh PIWIL2 (11732686_x_at) / RFU ORM1 (11744905_x_at) / Fold change /veh ORM1 (11744905_x_at) / RFU CCDC152 (11743942_at) / Fold change /veh CCDC152 (11743942_at) / RFU ECM1 (11717891_a_at) / Fold change /veh ECM1 (11717891_a_at) / RFU IL23R (11748794_a_at) / Fold change /veh IL23R (11748794_a_at) / RFU TNFAIP8L3 (11732012_x_at) / Fold change /veh TNFAIP8L3 (11732012_x_at) / RFU MBOAT4 (11741988_at) / Fold change /veh MBOAT4 (11741988_at) / RFU 11764193_at / Fold change /veh 11764193_at / RFU TMEM53 (11763286_at) / Fold change /veh TMEM53 (11763286_at) / RFU MAGEB2 (11727129_at) / Fold change /veh MAGEB2 (11727129_at) / RFU TMEM200A (11744735_a_at) / Fold change /veh TMEM200A (11744735_a_at) / RFU CCDC152 (11751479_a_at) / Fold change /veh CCDC152 (11751479_a_at) / RFU FAM211A (11726209_a_at) / Fold change /veh FAM211A (11726209_a_at) / RFU RGS16 (11746705_a_at) / Fold change /veh RGS16 (11746705_a_at) / RFU VCAN (11755009_s_at) / Fold change /veh VCAN (11755009_s_at) / RFU RHOB (11743442_s_at) / Fold change /veh RHOB (11743442_s_at) / RFU RGS16 (11720943_a_at) / Fold change /veh RGS16 (11720943_a_at) / RFU RGS16 (11720944_at) / Fold change /veh RGS16 (11720944_at) / RFU, VPS4B / Fold change vs veh, VPS4B / RFU, CREB1 / Fold change vs veh, CREB1 / RFU, DNAJC13 / Fold change vs veh, DNAJC13 / RFU, GNAQ / Fold change vs veh, GNAQ / RFU, CDK5R1 / Fold change vs veh, CDK5R1 / RFU, ZRANB3 / Fold change vs veh, ZRANB3 / RFU, CUL4A / Fold change vs veh, CUL4A / RFU, CCNY / Fold change vs veh, CCNY / RFU, UFL1 / Fold change vs veh, UFL1 / RFU, COG3 / Fold change vs veh, COG3 / RFU, DIAPH2 / Fold change vs veh, DIAPH2 / RFU, SKA2 / Fold change vs veh, SKA2 / RFU, AFF3 / Fold change vs veh, AFF3 / RFU, LMF1 / Fold change vs veh, LMF1 / RFU, IPO11 / Fold change vs veh, IPO11 / RFU, DFFB / Fold change vs veh, DFFB / RFU, FOXP1 / Fold change vs veh, FOXP1 / RFU, CARD8 / Fold change vs veh, CARD8 / RFU, STRN3 / Fold change vs veh, STRN3 / RFU, ADK / Fold change vs veh, ADK / RFU, RASSF2 / Fold change vs veh, RASSF2 / RFU, WIPF1 / Fold change vs veh, WIPF1 / RFU, LARP1B / Fold change vs veh, LARP1B / RFU, RASA1 / Fold change vs veh, RASA1 / RFU, RB1 / Fold change vs veh, RB1 / RFU, PPFIA1 / Fold change vs veh, PPFIA1 / RFU, MAT2A / Fold change vs veh, MAT2A / RFU, CCT5 / Fold change vs veh, CCT5 / RFU, WDR92 / Fold change vs veh, WDR92 / RFU, CUX1 / Fold change vs veh, CUX1 / RFU, TTC7A / Fold change vs veh, TTC7A / RFU, TMEM135 / Fold change vs veh, TMEM135 / RFU, DEPTOR / Fold change vs veh, DEPTOR / RFU, CPM / Fold change vs veh, CPM / RFU, DNAJB6 / Fold change vs veh, DNAJB6 / RFU, CACNA2D3 / Fold change vs veh, CACNA2D3 / RFU, DTX4 / Fold change vs veh, DTX4 / RFU, TFCP2 / Fold change vs veh, TFCP2 / RFU, GMCL1 /// GMCL1P1 / Fold change vs veh, GMCL1 /// GMCL1P1 / RFU, AEBP2 / Fold change vs veh, AEBP2 / RFU, SNHG1 /// SNORD22 /// SNORD25 /// SNORD26 /// SNORD27 /// SNORD28 /// SNORD29 /// SNORD31 / Fold change vs veh, SNHG1 /// SNORD22 /// SNORD25 /// SNORD26 /// SNORD27 /// SNORD28 /// SNORD29 /// SNORD31 / Fold change (Aza/veh), C12orf56 (ProbeSet 11735607_a_at) / Fold change (ACY-1035/veh), C12orf56 (ProbeSet 11735607_a_at) / Fold change (Aza/veh), FGFR1OP (ProbeSet 11751329_s_at) / Fold change (ACY-1035/veh), FGFR1OP (ProbeSet 11751329_s_at) / Fold change (Aza/veh), VPS36 (ProbeSet 11739960_a_at) / Fold change (ACY-1035/veh), VPS36 (ProbeSet 11739960_a_at) / RFU SYPL1 (11715823_x_at) / Fold change /veh SYPL1 (11715823_x_at) / RFU IGFBP7 (11715501_s_at) / Fold change /veh IGFBP7 (11715501_s_at) / RFU REEP3 (11722064_at) / Fold change /veh REEP3 (11722064_at) / RFU IGLL1 (11728026_x_at) / Fold change /veh IGLL1 (11728026_x_at): dose or concentration left out as unconfirmed
Conditions: ProbeSet 11725787_a_at; LIST B

Nc1ncn([C@@H]2O[C@H](CO)[C@@H](O)[C@H]2O)c(=O)n1 [azacitidine]
Fold change vs veh, TMA16: 0.94
